The IC50 is the concentration that inhibits the measured activity by half.

Like-named read-outs stand apart in the source and are kept apart here.

The assay has as its target T1, P2X7 receptor (Homo sapiens, UniProt Q99572).
T1 construct: host or cells: SH-SY5Y
T1 sequence (Q99572 1-595): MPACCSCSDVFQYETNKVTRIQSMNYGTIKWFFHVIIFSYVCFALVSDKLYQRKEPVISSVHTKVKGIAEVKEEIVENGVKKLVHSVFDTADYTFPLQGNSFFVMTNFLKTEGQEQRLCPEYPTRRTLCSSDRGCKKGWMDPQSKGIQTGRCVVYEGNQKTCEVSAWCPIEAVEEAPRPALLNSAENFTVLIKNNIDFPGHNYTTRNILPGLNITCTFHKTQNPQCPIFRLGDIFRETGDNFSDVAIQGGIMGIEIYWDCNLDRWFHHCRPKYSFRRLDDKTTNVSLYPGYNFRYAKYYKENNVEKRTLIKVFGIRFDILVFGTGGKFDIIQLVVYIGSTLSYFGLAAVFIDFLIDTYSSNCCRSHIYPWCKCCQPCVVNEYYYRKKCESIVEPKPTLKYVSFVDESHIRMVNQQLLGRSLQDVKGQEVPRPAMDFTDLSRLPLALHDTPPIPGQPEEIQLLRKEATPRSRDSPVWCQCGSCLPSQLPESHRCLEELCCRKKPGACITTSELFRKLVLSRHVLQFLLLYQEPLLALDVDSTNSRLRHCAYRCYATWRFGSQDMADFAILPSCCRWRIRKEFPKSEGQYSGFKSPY
Put plainly: P2X7 calcium mobilization assay, high throughput, antagonist activity (Example 4A). In kind it is cell-based. The method in brief:
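FLIPR^TETRA calcium read-out: maximum RFU per well minus average no-agonist control, with agonist wells giving the average positive maximum. Cells seeded at 100,000/well one day ahead, dye-loaded 1 h, rinsed, then exposed to compound for 1 h at room temperature.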

Setting [1] is: 50% decrease in the fluorescence response of cells exposed to 80 μM 2′(3′)-O-(4-benzoyl-benzoyl)adenosine 5′-triphosphate, Example 4A, read-out: IC50.

Consider `CC(C)(CO)NC(=O)c1cn2c(NC(=O)CC34CC5CC(CC(C5)C3)C4)cccc2n1` [Compound 437, 5-[(adamantan-1-ylacetyl)amino]-N-(2-hydroxy-1,1-dimethylethyl)imidazo [1,2-a]pyridine-2-carboxamide], for which, under setting [1], the 50% inhibitory concentration (IC50) is less than 2000 nM.
For the compound `O=C(CC12CC3CC(CC(C3)C1)C2)Nc1cccc2nc(C(=O)NC3(CO)CCCC3)cn12` [Compound 441, 5-[(adamantan-1-ylacetyl)amino]-N-[1-(hydroxymethyl)cyclopentyl]imidazo[1,2-a]pyridine-2-carboxamide], under setting [1], the IC50 is less than 2000 nM.
Turning to `O=C(NCC12CC3CC(CC(C3)C1)C2)c1cccc2nc(CS(=O)(=O)c3nnc[nH]3)cn12` [Compound 449, N-(adamantan-1-ylmethyl)-2-[(4H-1,2,4-triazol-3-ylsulfonyl)methyl] imidazo [1,2-a]pyridine-5-carboxamide], the IC50 under setting [1] was less than 2000 nM.
For `CCOC(=O)C(C)(C)c1cn2c(C(=O)NCC34CC5CC(CC(C5)C3)C4)cccc2n1` [Compound 450, ethyl 2-{5-[(adamantan-1-ylmethyl)carbamoyl]imidazo[1,2-a]pyridin-2-yl}-2-methylpropanoate], the IC50 under setting [1] was less than 2000 nM.
On the same count and under the same terms, as for `CCOC(=O)C(C)(C)c1cn2c(C(=O)N(C)CC34CC5CC(CC(C5)C3)C4)cccc2n1` [Compound 451, ethyl 2-{5-[(adamantan-1-ylmethyl)(methyl)carbamoyl]imidazo [1,2-a]pyridin-2-yl} -2-methyl-propanoate], the figure is less than 2000 nM; as for `CCOC(=O)N1CCN(C(=O)c2cn3c(C(=O)NC[C@@H]4CC[C@H]5C[C@@H]4C5(C)C)cccc3n2)CC1` [Compound 452, ethyl 4-{[5-({[(1S,2R,5S)-6,6-dimethylbicyclo[3.1.1]hept-2-yl]methyl}carbamoyl)imidazo[1,2-a]pyridin-2-yl]carbonyl}piperazine-1-carboxylate], less than 2000 nM.
In the case of `CC1(C)[C@H]2CC[C@@H](CNC(=O)c3cccc4nc(C(=O)N5CCCC5)cn34)[C@@H]1C2` [Compound 454, N-{[(1S,2R,5S)-6,6-dimethylbicyclo[3.1.1]hept-2-yl]methyl}-2-(pyrrolidin-1-ylcarbonyl) imidazo[1,2-a]pyridine-5-carboxamide], under setting [1], the half-maximal inhibitory concentration (IC50) was less than 2000 nM.
Turning to `CCN(CC)C(=O)C1CCCN(C(=O)c2cn3c(C(=O)NC[C@@H]4CC[C@H]5C[C@@H]4C5(C)C)cccc3n2)C1` (stereo partly drawn) [Compound 456, 2-{[3-(diethylcarbamoyl)piperidin-1-yl]carbonyl}-N-{[(1S,2R,5S)-6,6-dimethylbicyclo[3.1.1]hept-2-yl]methyl}imidazo[1,2-a]pyridine-5-carboxamide], the IC50 under setting [1] was less than 2000 nM.
Regarding `CC(=O)NC1CCN(C(=O)c2cn3c(C(=O)NC[C@@H]4CC[C@H]5C[C@@H]4C5(C)C)cccc3n2)C1` (stereo partly drawn) [Compound 457, 2-[(3-acetamidopyrrolidin-1-yl)carbonyl]-N-{[(1S,2R,5S)-6,6-dimethylbicyclo[3.1.1]hept-2-yl]methyl}imidazo[1,2-a]pyridine-5-carboxamide], the IC50 under setting [1] is less than 2000 nM.
On to `CCCN(C)C(=O)c1cn2c(C(=O)NC[C@@H]3CC[C@H]4C[C@@H]3C4(C)C)cccc2n1` [Compound 460, 5-N-{[(1S,2R,5S)-6,6-dimethylbicyclo[3.1.1]hept-2-yl]methyl}-2-N-methyl-2-N-propylimidazo[1,2-a]pyridine-2,5-dicarboxamide], for which the IC50 under setting [1] is less than 2000 nM.
Take `CC1(C)[C@H]2CC[C@@H](CNC(=O)c3cccc4nc(C(=O)N5CCSCC5)cn34)[C@@H]1C2` [Compound 462, N-{[(1S,2R,5S)-6,6-dimethylbicyclo[3.1.1]hept-2-yl]methyl}-2-(thiomorpholin-4-ylcarbonyl)imidazo[1,2-a]pyridine-5-carboxamide]: the IC50 under setting [1] was less than 2000 nM.
Turning to `CC1CCN(C(=O)c2cn3c(C(=O)NC[C@@H]4CC[C@H]5C[C@@H]4C5(C)C)cccc3n2)CC1` [Compound 463, N-{[(1S,2R,5S)-6,6-dimethylbicyclo[3.1.1]hept-2-yl]methyl}-2-[(4-methylpiperidin-1-yl)carbonyl]imidazo[l, 2-a]pyridine-5-carboxamide], under setting [1], the IC50 was less than 2000 nM.
As for `CC1(C)[C@H]2CC[C@@H](CNC(=O)c3cccc4nc(C(=O)N5CCOCC5)cn34)[C@@H]1C2` [Compound 464, N-{[(1S,2R,5S)-6,6-dimethylbicyclo[3.1.1]hept-2-yl]methyl}-2-(morpholin-4-ylcarbonyl)imidazo [1,2-a]pyridine-5-carboxamide], under setting [1], the IC50 was less than 2000 nM.
As for `CC1(C)[C@H]2CC[C@@H](CNC(=O)c3cccc4nc(C(=O)N5CCCCC5)cn34)[C@@H]1C2` [Compound 465, N-{[(1S,2R,5S)-6,6-dimethylbicyclo[3.1.1]hept-2-yl]methyl}-2-(piperidin-1-ylcarbonyl)imidazo[1,2-a]pyridine-5-carboxamide], the half-inhibitory concentration (IC50) under setting [1] is less than 2000 nM.
As to `COCCN(C)C(=O)c1cn2c(C(=O)NC[C@@H]3CC[C@H]4C[C@@H]3C4(C)C)cccc2n1` [Compound 466, 5-N-{[(1S,2R,5S)-6,6-dimethylbicyclo[3.1.1]hept-2-yl]methyl}-2-N-(2-methoxyethyl)-2-N-methylimidazo[1,2-a]pyridine-2,5-dicarboxamide], the half-inhibitory concentration (IC50) under setting [1] is less than 2000 nM.
Regarding `CC(C)CN(C)C(=O)c1cn2c(C(=O)NC[C@@H]3CC[C@H]4C[C@@H]3C4(C)C)cccc2n1` [Compound 467, 5-N-{[(1S,2R,5S)-6,6-dimethylbicyclo[3.1.1]hept-2-yl]methyl}-2-N-isobutyl-2-N-methylimidazo[1,2-a]pyridine-2,5-dicarboxamide], the 50% inhibitory concentration (IC50) under setting [1] is less than 2000 nM.
For the compound `CN(CC1OCCO1)C(=O)c1cn2c(C(=O)NC[C@@H]3CC[C@H]4C[C@@H]3C4(C)C)cccc2n1` [Compound 468, 5-N-{[(1S,2R,5S)-6,6-dimethylbicyclo[3.1.1]hept-2-yl]methyl}-2-N-(1,3-dioxolan-2-ylmethyl)-2-N-methylimidazo[1,2-a]pyridine-2,5-dicarboxamide], the 50% inhibitory concentration (IC50) under setting [1] is less than 2000 nM.
Same read-out and setting: the same measure for `CCN(C)C(=O)c1cn2c(C(=O)NC[C@@H]3CC[C@H]4C[C@@H]3C4(C)C)cccc2n1` [Compound 469, 5-N-{[(1S,2R,5S)-6,6-dimethylbicyclo[3.1.1]hept-2-yl]methyl}-2-N-ethyl-2-N-methylimidazo[1,2-a]pyridine-2,5-dicarboxamide]: less than 2000 nM; for `CN(C)C(=O)c1cn2c(C(=O)NC[C@@H]3CC[C@H]4C[C@@H]3C4(C)C)cccc2n1` [Compound 470, 5-N-{[(1S,2R,5S)-6,6-dimethylbicyclo[3.1.1]hept-2-yl]methyl}-2-N,2-N-dimethylimidazo[1,2-a]pyridine-2,5-dicarboxamide]: less than 2000 nM; for `CCCCN(C)C(=O)c1cn2c(C(=O)NC[C@@H]3CC[C@H]4C[C@@H]3C4(C)C)cccc2n1` [Compound 471, 2-N-butyl-5-N-{[(1S,2R,5S)-6,6-dimethylbicyclo[3.1.1]hept-2-yl]methyl}-2-N-methylimidazo[1,2-a]pyridine-2,5-dicarboxamide]: less than 2000 nM.
With `COC[C@@H]1CCCN1C(=O)c1cn2c(C(=O)NC[C@@H]3CC[C@H]4C[C@@H]3C4(C)C)cccc2n1` [Compound 473, N-{[(1S,2R,5S)-6,6-dimethylbicyclo[3.1.1]hept-2-yl]methyl}-2-{[(2S)-2-(methoxymethyl)pyrrolidin-1-yl]carbonyl}imidazo[1,2-a]pyridine-5-carboxamide], the IC50 under setting [1] was less than 2000 nM.
`CCCN(CC1CC1)C(=O)c1cn2c(C(=O)NC[C@@H]3CC[C@H]4C[C@@H]3C4(C)C)cccc2n1` [Compound 474, 2-N-(cyclopropylmethyl)-5-N-{[(1S,2R,5S)-6,6-dimethylbicyclo[3.1.1]hept-2-yl]methyl}-2-N-propylimidazo[1,2-a]pyridine-2,5-dicarboxamide]: under setting [1], the IC50 was less than 2000 nM.
As to `CCCCN(CC)C(=O)c1cn2c(C(=O)NC[C@@H]3CC[C@H]4C[C@@H]3C4(C)C)cccc2n1` [Compound 475, 2-N-butyl-5-N-{[(1S,2R,5S)-6,6-dimethylbicyclo[3.1.1]hept-2-yl]methyl}-2-N-ethylimidazo[1,2-a]pyridine-2,5-dicarboxamide], the IC50 under setting [1] is less than 2000 nM.
Turning to `CCCN(CCC)C(=O)c1cn2c(C(=O)NC[C@@H]3CC[C@H]4C[C@@H]3C4(C)C)cccc2n1` [Compound 476, 5-N-{[(1S,2R,5S)-6,6-dimethylbicyclo[3.1.1]hept-2-yl]methyl}-2-N,2-N-dipropylimidazo[1,2-a]pyridine-2,5-dicarboxamide], the half-maximal inhibitory concentration (IC50) is less than 2000 nM.
For the compound `CCN(CC)C(=O)c1cn2c(C(=O)NC[C@@H]3CC[C@H]4C[C@@H]3C4(C)C)cccc2n1` [Compound 477, 5-N-{[(1S,2R,5S)-6,6-dimethylbicyclo[3.1.1]hept-2-yl]methyl}-2-N,2-N-diethylimidazo[1,2-a]pyridine-2,5-dicarboxamide], the half-maximal inhibitory concentration (IC50) under setting [1] is less than 2000 nM.
As to `CCOC(=O)CN(CC)C(=O)c1cn2c(C(=O)NC[C@@H]3CC[C@H]4C[C@@H]3C4(C)C)cccc2n1` [Compound 479, ethyl N-{[5-({[(1S,2R,5S)-6,6-dimethylbicyclo[3.1.1]hept-2-yl]methyl}carbamoyl)imidazo[1,2-a]pyridin-2-yl]carbonyl}-N-ethylglycinate], under setting [1], the IC50 was less than 2000 nM.

The values are drawn from patent publication US8431593B2, “Heteroaryl amide derivatives” (H. Lundbeck A/S, priority 2006, dated 2013).
